Read-outs that look alike come from different tables or passages of the source.
Tests used:
[1] = found by other investigators; cited from earlier work
[2] = test system: N/4.2-NRKE transformed by the human ras^N gene; experiment: cells; conditions: N42, read-out: LC50 N/4.2
[3] = test system: H/1.2 = ras^H Transformed NRKE Cells; experiment: cells; conditions: Rattus norvegicus, read-out: LC50 H/1.2
[4] = test system: 3LL = Lewis Lung Carcinoma Cells; experiment: cells; conditions: Mus musculus
in vitro = conditions: rat, LC50 NRKE
[5] = test system: 3LL = Lewis Lung Carcinoma Cells; conditions: 3LL = Lewis lung carcinoma cells, compared with normal NRKE cells
[6] = test system: H/1.2 = ras^H Transformed NRKE Cells; conditions: H/1.2 = ras^H transformed NRKE cells, compared with normal NRKE cells
[7] = test system: K/1 = ras^K Transformed NRKE Cells; experiment: cells; conditions: Rattus norvegicus, read-out: LC50 K/1
[8] = test system: K/1 = ras^K Transformed NRKE Cells; conditions: K/1 = ras^K transformed NRKE cells, compared with normal NRKE cells
[9] = test system: N/4.2-NRKE transformed by the human ras^N gene; conditions: N/4.2 = ras^N transformed NRK cells, compared with normal NRKE cells
ras oncogene p21 protein = conditions: U.S. Pat. No. 5,158,960; Liu et al.; cited from earlier work
[10] = read-out: LC50 3LL, Table XV (Example 51)

Compound | dose that is lethal [1] [mg/kg/day] | CC50 [2] [µM] | CC50 [3] [µM] | CC50 [4, 10] [µM] | CC50 at 5 days (in vitro) [µM] | Differential Index 3LL [5] | Differential Index H/1.2 [6] | CC50 [7] [µM] | Differential Index K/1 [8] | Differential Index N/4.2 [9] | CC50 ([3]; 120 h) [µM] | CC50 ([4]; 120 h, read-out: LC50 3LL, Table VII, concentration giving 50% cell kill, 5 days exposure) [µM] | CC50 ([7]; 120 h) [µM] | activity relative to streptonigrin in an assay for the inhibition of the farnesylation of ras oncogene p21 protein (ras oncogene p21 protein)
Cc1c(C(=O)O)nc(-c2ccc3c(n2)C(=O)C(N)=CC3=O)c2[nH]c3ccccc3c12 [lavendamycin, Lavendamycin] | 100 | – | – | – | – | – | – | – | – | – | – | – | – | –
Cc1ccc2c(n1)C(=O)C(NC(=O)CCl)=CC2=O [Compound 28, 7-CHLOROACETAMIDO-2-METHYLQUINOLINE-5,8-DIONE] | – | 3.4 | 2.8 | 2.3 | 3.2 | 1.4 | 1.1 | 6.6 | 0.48 | 0.9 | – | – | – | –
CC(=O)NC1=CC(=O)c2ccc(C=O)nc2C1=O [Compound 23, 7-ACETAMIDO-2-FORMYLQUINOLINE-5,8-DIONE] | – | 7 | 5.5 | 3.7 | – | 1.35 | 0.9 | 12.5 | 0.4 | 0.7 | 2.5 | 1.2 | 2.6 | –
O=Cc1ccc2c(n1)C(=O)C(NC(=O)CCl)=CC2=O [Compound 24, 7-CHLOROACETAMIDO-2-FORMYLQUINOLINE-5,8-DIONE] | – | 3.2 | 3.4 | 2.1 | 3.6 | 1.7 | 1.06 | 5.8 | 0.6 | 1.125 | – | – | – | –
COC1=C(N)C(=O)c2nc(-c3nc(C(=O)O)c(C)c(-c4ccc(OC)cc4O)c3N)ccc2C1=O [10′-Desmethoxystreptonigrin, 10′-desmethoxystreptonigrin] | – | – | – | – | – | – | – | – | – | – | – | – | – | three times more active than streptonigrin

— patent publication US6444684B1 (priority 1993, dated 2002)
